# Measurements reported in patent US6514997B2, “Antipicornaviral compounds and compositions, their pharmaceutical uses, and materials for their synthesis” (Agouron Pharmaceuticals, Inc., priority 1999, dated 2003).
# Experiments:
# [1] = Cytotoxicity (CC50), cell line not stated; type: cell-based
smiles,measurement,setting,value
"C#CC[C@@H](C(=O)N[C@H](/C=C/C(=O)OC(C)(C)C)C[C@@H]1CCNC1=O)n1cccc(NC(=O)c2cc(C)on2)c1=O [Compound 41, trans-(2′S,3′″″S,4S)-4-[2′-(3″-{[1′″-(5″″-Methylisoxazol-3″″-yl)methanoyl]amino}-2′″-oxo-2′″H-pyridin-1′″-yl)pent-4″-ynoylamino]-5-(2′″″-oxopyrrolidin-3′″″-yl)pent-2-enoic Acid tert-Butyl Ester]",melting point,,195 °C (dec.)
"CC[C@@H](C(=O)N[C@H](/C=C/C(=O)OCc1ccccc1)C[C@@H]1CCNC1=O)n1cccc(NC(=O)c2cc(C)on2)c1=O [Compound 62, trans-(2′S,3′″″S,4S)-4-[2′-(3″-{[1′″-(5″″-Methylisoxazol-3″″-yl)methanoyl]amino}-2′″oxo-2′″H-pyridin-1′″-yl)butanoylamino]-5-(2′″″-oxopyrrolidin-3′″″-yl)pent-2-enoic Acid Benzyl Ester]",CC50,[1]; CVB2,> 10 µM
same,CC50,[1]; CVB5,> 10 µM
same,CC50,[1]; ECHO9,> 10 µM
"C#CC[C@@H](C(=O)N[C@H](/C=C/C(=O)OCc1ccccc1)C[C@@H]1CCNC1=O)n1cccc(NC(=O)c2cc(C)on2)c1=O [Compound 63, trans-(2′S,3′″″S,4S)-4-[2′-(3″-{[1′″-(5″″-Methylisoxazol-3″″-yl)methanoyl]amino}-2′″-oxo-2′″H-pyridin-1′″-yl)pent-4″-ynoylamino]-5-(2′″″-oxopyrrolidin-3′″″-yl)pent-2-enoic Acid Benzyl Ester]",CC50,[1]; CVB2,> 10 µM
same,CC50,[1]; CVB5,> 10 µM
same,CC50,[1]; ECHO9,> 10 µM
